Laboratory results as given in patent publication US10857211B2, “Genomic instability markers in Fanconi anemia” (Children's Hospital Medical Center, priority 2014, dated 2020).
“Also recorded” adds a separate entry of the source.

Tests used:
SCC1 cells [1] = test: Matrigel-coated transwell invasion assay, SCC1 cells; assay type: cell-based, human; details: for invasion of FANCD2sh-treated SCC1 cells: Matrigel-coated transwells, 22 hours
Method: (§1) FIGS. 23A and B show a pathway loss promotes invasion of squamous tumor cells. Indicated cells were treated with the indicated shRNA vectors and then plated in Matrigel-coated transwells. After 22 hours, invasive cells were quantified.
After 22 hours, invasive cells were quantified. Representative images are shown. Experiments were carried out in duplicate, and standard deviation calculated.
FA pathway loss promoted motility and invasion. To assess motility and invasiveness of FA-deficient cells, the Matrigel cell invasion assay was used. […] To rule out off-target effects of the lentivirus, an shRNA-resistant EGFP-FANCD2 construct was introduced. The EGFP-FANCD2 fusion protein was expressed in GFP+ cells (but not GFP− cells), and was sufficient to block invasion of FANCD2sh-treated SCC1 cells (FIG. 23B). Similarly, FANCA and FANCJ knockdown stimulated invasion in SCC1 cells (FIG. 23C). […] Gains in cellular motility were also observed for normal oral keratinocytes (NOKS): 1.3% of NTsh normal oral keratinocytes (NOKS) cells plated were able to migrate through matrigel. This invasion frequency doubled upon FANCD2 knockdown, highlighting potential relevance for FA loss for the motility of normal cells (data not shown).

SCC47 cells [2] = test: Matrigel-coated transwell invasion assay, SCC47 cells; assay type: cell-based, human; details: 100 uM NB-DNJ, 48 hrs; NTsh, FANCD2sh, FANCJsh
Method: as §1
(§2) FIGS. 27I and J show NTsh-, FANCD2sh- and FANCJsh-treated SCC1 and SCC47 cells were cultured for 48 hrs in 100 uM NB-DNJ.
GM3 is the precursor of complex gangliosides (FIG. 27E), a key component of cell membranes, and enriched in lipid rafts (LRs). GM3 and its derivative GM1 localize to microdomains in apical epithelial membranes (68) and GM3 depletion was reported to blocked wound healing in diabetic mice (69). Further, GM3 was elevated in head and neck tumors (compared to adjacent normal tissue) (70) and in serum of HNSCC patients, and was predictive of tumor size and relapse (71). On the other hand, links between GM3 levels and FA have not yet been reported. Targeted analyses by UPLC-MS/MS in normal cutaneous (NIKS) and normal oral (NOKS) keratinocytes, as well as in UM-SCC1 cells verified GM3 regulation across the major carbohydrate component lengths (i.e., from d34:1 to d44:2) (FIG. 27F-H). […] To assess the functional significance of ganglioside accumulation in FA cells, the effect of a ganglioside synthesis inhibitor N-butyldeoxynojirimycin (NB-DNJ)72 was measured on invasion driven by FA pathway loss. […]

SCC1 cells [3] = test: Cell growth in culture, SCC1 cells; assay type: cell-based, human; details: for growth of FANCD2sh-treated SCC1 cells: NSC23766: 48 hours culture
SCC47 cells [4] = test: Cell growth in culture, SCC47 cells; assay type: cell-based, human; details: NB-DNJ
GM3 = GM3 levels by targeted MS in NB-DNJ treated cells; assay type: cell-based, human; details: 100 uM NB-DNJ, 48 hrs; NTsh-, FANCD2sh- and FANCJsh-treated SCC1 and SCC47 cells
Method: as §2
GM3 is the precursor of complex gangliosides (FIG. 27E), a key component of cell membranes, and enriched in lipid rafts (LRs). GM3 and its derivative GM1 localize to microdomains in apical epithelial membranes (68) and GM3 depletion was reported to blocked wound healing in diabetic mice (69). Further, GM3 was elevated in head and neck tumors (compared to adjacent normal tissue) (70) and in serum of HNSCC patients, and was predictive of tumor size and relapse (71). On the other hand, links between GM3 levels and FA have not yet been reported. Targeted analyses by UPLC-MS/MS in normal cutaneous (NIKS) and normal oral (NOKS) keratinocytes, as well as in UM-SCC1 cells verified GM3 regulation across the major carbohydrate component lengths (i.e., from d34:1 to d44:2) (FIG. 27F-H). […] To assess the functional significance of ganglioside accumulation in FA cells, the effect of a ganglioside synthesis inhibitor N-butyldeoxynojirimycin (NB-DNJ)72 was measured on invasion driven by FA pathway loss. NTsh-, FANCD2sh- and FANCJsh-treated SCC1 and SCC47 cells were exposed to NB-DNJ (or vehicle), and subjected to Matrigel invasion assays (FIG. 23).

FA-deficient SCC = test: Invasion of FA-deficient SCC, rescue by supplementation; assay type: cell-based
SCC1 cells [5] = test: Flow cytometry-based cell-cycle analysis after melphalan, SCC1 cells; parameters: species or system human; details: FANCD2-deficient SCC1 cells compared to NTsh
Text: (§3) Percentages of cells in G2/M are indicated. […] Images were taken at the same magnification and exposure. […] Errors bars represent standard deviation; ** p<0.001; *** p<0.0001 (ANOVA).
FA pathway loss leads to cytoskeletal and membrane aberrations in HNSCC cells. A significant proportion of sporadic HNSCCs harbor somatic mutations in FA and FA-related genes (33). To test for biological effects of FA pathway loss, knockdown models of HNSCC were created using published lentiviral shRNA vectors (15, 41). First, the HPV-negative (UM-)SCC1 cell line was knocked down for FANCA, FANCD2, and FANCJ. Western blot analyses verified specific and efficient FA protein depletion (FIG. 22A). To verify that FANCD2 depletion induced classical FA phenotypes, DNA crosslinker sensitivity was quantified. […] This was similar to FA lymphoblasts and fibroblasts that also respond to melphalan with G2/M cell-cycle arrest (42-43). FANCA- and FANCJ-deficient SCC1 cells responded similarly, as did UMSCC6 and UMSCC47 HNSCC cell lines depleted for FA proteins (data not shown). Thus, FA knockdown in HPV-positive and -negative […] cells induced the classic FA DNA-crosslinker sensitivity phenotype.

pDNA-PKcs = molecular target: T1, pDNA-PKcs (Homo sapiens, UniProt P78527); test: Western blot of pDNA-PKcs in SCC1 cells after bleomycin pulse; assay type: cell-based; details: 10 uM NU7026; 30-minute bleomycin pulse; FANCD2sh-, FANCJsh- and control (NTsh) SCC1 cells
T1 construct: Western blot analysis of NTsh-, FANCD2sh- and FANCJsh-treated SCC1 cells that were subjected to a 30-minute pulse of bleomycin; endogenous in cells; host or cells: UM-SCC1 (SCC1) HNSCC cells carrying NTsh, FANCD2sh or FANCJsh lentiviral shRNA
Text: DNA-PK/Rac1 signaling occurred in response to FA pathway loss and was required for cytoskeletal re-organization and invasion. […] These defects are accompanied, under some circumstances, by a corresponding increase in the activity of error-prone non-homologous end joining (NHEJ) pathway components (27-28). Repair by NHEJ requires activation of the catalytic subunit of DNA-dependent protein kinase (DNA-PKcs) and subsequent autophosphorylation on serine […] (pDNA-PKcs). The inventors first determined whether DNA-PKcs signaling was activated and involved in FA-associated invasion. FANCD2sh- and FANCJsh-treatment of SCC1 cells stimulated pDNA-PKcs.

Rac1 = test: Rac1-GTP pulldown assay in SCC1 cells; assay type: cell-based, human
Text: Members of the small GTPase Rho, Rac and CDC42 family of signaling molecules were key players in normal and transformed cell morphology, adhesion, motility, and invasion (46). […] Because Rac1 activation is reported to produce intercellular projections (47-48) similar to the ones noted in FA-deficient cells (FIG. 22E), the inventors carried out Rac1-GTP pull-downs to determine whether Rac1 is activated by FA pathway loss; FANCJsh SCC1 cells were used, since pDNA-PK activation in these cells was robust (FIG. 24A). […] To examine the requirement for Rac1 in cytoskeletal re-organization and invasion of FA-deficient cells, the specific Rac1 small molecule inhibitor NSC23766 was used (49-50). […] Thus, FA pathway loss leads to downstream activation of pDNA-PK and Rac1, and both are required for cytoskeletal rearrangements and invasion.

SCC1 cells [6] = test: Phalloidin staining, quantification of intercellular projections in SCC1 cells; assay type: cell-based, human; details: FANCD2sh- and FANCJsh SCC1 cells, phalloidin stain
Text: as §3

With CCCCN1C[C@H](O)[C@@H](O)[C@H](O)[C@H]1CO [NB-DNJ, N-butyldeoxynojirimycin] the “invasion driven by FA loss, SCC1 cells” value (SCC1 cells [1]; 100 uM NB-DNJ, 48 hrs, NTsh, FANCD2sh, FANCJsh) was “selectively inhibited invasion driven by FA loss”, the “invasion driven by FA loss, SCC47 cells” value (SCC47 cells [2]) was “selectively inhibited invasion driven by FA loss” and the “growth of SCC1 cells” value (SCC1 cells [3]; NB-DNJ) was “did not affect the growth”. For the same compound, the “growth of SCC47 cells” value (SCC47 cells [4]) was “did not affect the growth” and the GM3 levels (GM3) was “reduced GM3 levels; also recorded: successfully repressed GM3 levels”.

With NeuACα2-3Galβ1-4Glcβ1-1ceramide [GM3] the “invasion of SCC1 cells with GM3 in cell media” value (SCC1 cells [1]; GM3 50 uM) was “doubled the invasion” and the “SCC1 invasion on GM3 addition to culture media” value (SCC1 cells [1]; particularly in FA-proficient cells, data not shown) was “stimulated SCC1 invasion”.

With O=c1c(O)c(-c2ccc(O)c(O)c2)oc2cc(O)cc(O)c12 [quercetin] the “invasion of FA-deficient SCC” value (FA-deficient SCC) was “rescued”.

For Oc1ccc([C@H]2COc3cc(O)ccc3C2)cc1 [equol], the “invasion of FA-deficient SCC” value (FA-deficient SCC) was “rescued”.

With N[C@@H](Cc1ccc(N(CCCl)CCCl)cc1)C(=O)O [melphalan] the “proportion of cells in G2/M after melphalan” value (SCC1 cells [5]) was “increased proportion of cells in G2/M”.

For CC(C)CCC[C@@H](C)[C@H]1CC[C@H]2[C@@H]3CC=C4C[C@@H](O)CC[C@]4(C)[C@H]3CC[C@]12C [cholesterol], the “invasion of FA-deficient SCC” value (FA-deficient SCC) was “rescued”.

O=c1cc(N2CCOCC2)oc2c1ccc1ccccc12 [NU7026] was tested, and the “pDNA-PKcs level (Western blot)” value (pDNA-PKcs) was “undetectable pDNA-PKcs”, the “invasion of FANCD2sh-treated SCC1 cells” value (SCC1 cells [1]) was “suppressed invasion” and the “growth of FANCD2sh-treated SCC1 cells” value (SCC1 cells [3]) was “did not appear to affect growth”. For the same compound, the “active Rac1 (Rac1-GTP) in FA-deficient cells” value (Rac1; FANCJsh SCC1 cells) was “significantly lowered active Rac1” and the “Rac1 activity in control cells” value (Rac1; NTsh control SCC1 cells) was “did not affect Rac1 activity”.

For CCN(CC)CCCC(C)Nc1nc(C)cc(Nc2ccc3nc(C)cc(N)c3c2)n1 (centres unmarked) [NSC23766], the “invasion of FANCD2sh-treated SCC1 cells” value (SCC1 cells [1]) was “suppressed cell invasion”, the “invasion of control cells” value (SCC1 cells [1]; NTsh control SCC1 cells) was “did affect invasion of control cells” and the “growth of FANCD2sh-treated SCC1 cells” value (SCC1 cells [3]) was “did not appear to affect growth”. For the same compound, the “number of long intercellular projections” value (SCC1 cells [6]) was “reduced the number of long intercellular projections”.
